Reference: patent US20090062401A1, “DECALINE-DERIVED COMPOUNDS AS […] ACTIVE AGENTS” (UNIVERSITAT DORTMUND, priority 2004, published 2009)
Like-named read-outs stand apart in the source and are kept apart here.

Assays:
11beta-HSD1 = 11beta-HSD1 (Homo sapiens, UniProt P28845); assay: biochemical; conditions: read-out: IC50 Target 11beta-HSD1
Text: (§1) Assay protocols for Cdc25A, 11βHSD1, 11βHSD2, and AChE are described in detain in the publication of Koch M A, Wittenberg L O, Basu S, Jeyaraj D A, Gourzoulidou E, Reinecke K, Odermatt A, Waldmann H (Proc. Natl. Acad. Sci. U.S.A. 2004 Nov. 30; 101(48):16721-6) and in Koch M A et al., Proc. Natl. Acad. Sci. U.S.A. 2005 Nov. 29; 102 (48):17272-7.

PTP1B = molecular target: T1, PTP1B (Homo sapiens, UniProt P18031); assay: PTP1B phosphatase inhibition, general phosphatase assay using para-nitrophenylphosphate; format: biochemical
T1 sequence (P18031 1-435): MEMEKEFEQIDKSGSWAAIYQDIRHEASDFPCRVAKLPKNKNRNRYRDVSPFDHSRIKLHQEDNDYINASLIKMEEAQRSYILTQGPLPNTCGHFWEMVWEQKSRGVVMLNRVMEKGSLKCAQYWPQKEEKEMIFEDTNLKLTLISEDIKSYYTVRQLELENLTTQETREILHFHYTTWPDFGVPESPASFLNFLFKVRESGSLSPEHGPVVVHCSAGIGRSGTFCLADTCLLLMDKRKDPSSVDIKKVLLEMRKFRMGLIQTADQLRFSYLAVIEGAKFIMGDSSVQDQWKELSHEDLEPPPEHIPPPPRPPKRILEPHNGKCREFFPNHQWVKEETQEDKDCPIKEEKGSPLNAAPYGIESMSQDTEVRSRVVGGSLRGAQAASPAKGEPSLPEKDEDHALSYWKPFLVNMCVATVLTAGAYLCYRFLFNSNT
Text: (§2) Assays protocols for the other enzymes mentioned herein (MtPTPA, PP1, VHR, PTP1B) are disclosed in Schweizer R A S, Atanasov, G A, Frey B M, and Odermatt A, Mol. Cell. Endocrinol. 2003, 212, 41-49 and Barratte, B., Meijer L., Galaktionov K. & Beach D, Anticancer Res. 1992, 12, 873-880. For determination of the phosphatase activity, a general phosphatase assay using para-nitrophenylphosphate was applied.

Cdc25A = molecular target: T2, Cdc25A (Homo sapiens, UniProt P30304); assay: Cdc25A phosphatase inhibition; format: biochemical
T2 sequence (P30304 1-524): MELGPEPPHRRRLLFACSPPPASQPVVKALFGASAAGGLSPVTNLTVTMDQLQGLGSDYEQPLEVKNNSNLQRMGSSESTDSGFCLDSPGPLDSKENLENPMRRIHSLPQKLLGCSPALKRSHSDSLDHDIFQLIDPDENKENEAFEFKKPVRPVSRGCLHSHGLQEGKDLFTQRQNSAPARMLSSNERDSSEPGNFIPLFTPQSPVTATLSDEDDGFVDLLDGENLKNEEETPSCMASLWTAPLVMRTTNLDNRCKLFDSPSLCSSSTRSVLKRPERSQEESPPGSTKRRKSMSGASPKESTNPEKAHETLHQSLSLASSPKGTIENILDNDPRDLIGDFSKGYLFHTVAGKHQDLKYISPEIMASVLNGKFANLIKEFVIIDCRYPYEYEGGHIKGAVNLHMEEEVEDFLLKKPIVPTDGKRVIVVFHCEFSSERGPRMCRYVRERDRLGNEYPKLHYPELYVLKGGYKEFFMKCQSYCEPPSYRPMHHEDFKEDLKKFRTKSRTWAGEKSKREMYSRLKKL
Text: as §1

PP1 = PP1 phosphatase inhibition, general phosphatase assay using para-nitrophenylphosphate; format: biochemical; conditions: read-out: IC50 Target PP1
Text: as §2

11beta-HSD2 = molecular target: T3, 11beta-HSD2 (Homo sapiens, UniProt P80365); assay: 11beta-HSD2 inhibition; format: biochemical; conditions: read-out: IC50 Target 11beta-HSD2
T3 sequence (P80365 1-405): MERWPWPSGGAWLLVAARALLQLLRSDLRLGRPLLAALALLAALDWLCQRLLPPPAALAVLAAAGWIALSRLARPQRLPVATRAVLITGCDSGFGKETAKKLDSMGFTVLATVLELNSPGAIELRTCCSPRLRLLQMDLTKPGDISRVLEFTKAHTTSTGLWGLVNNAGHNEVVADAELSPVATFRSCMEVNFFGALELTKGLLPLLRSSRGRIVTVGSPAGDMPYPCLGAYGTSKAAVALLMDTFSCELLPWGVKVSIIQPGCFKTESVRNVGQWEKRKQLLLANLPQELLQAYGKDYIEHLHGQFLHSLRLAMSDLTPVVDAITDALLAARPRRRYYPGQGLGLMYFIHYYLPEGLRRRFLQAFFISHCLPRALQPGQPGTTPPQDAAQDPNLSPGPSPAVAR
Text: as §1

VHR = VHR (Homo sapiens, UniProt P51452); assay: VHR phosphatase inhibition, general phosphatase assay using para-nitrophenylphosphate; format: biochemical; conditions: read-out: IC50 Target VHR
Sequence of VHR (P51452 whole entry, species assumed): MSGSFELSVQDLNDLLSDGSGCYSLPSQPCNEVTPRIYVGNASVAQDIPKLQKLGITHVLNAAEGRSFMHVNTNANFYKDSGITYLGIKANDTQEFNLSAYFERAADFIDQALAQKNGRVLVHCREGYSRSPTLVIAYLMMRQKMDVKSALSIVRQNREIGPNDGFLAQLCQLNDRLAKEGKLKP
Text: as §2

MPTPA = MPTPA (Mycobacterium tuberculosis, UniProt P9WIA1); assay: MtPTPA phosphatase inhibition, general phosphatase assay using para-nitrophenylphosphate; format: biochemical
Sequence of MPTPA (P9WIA1 whole entry): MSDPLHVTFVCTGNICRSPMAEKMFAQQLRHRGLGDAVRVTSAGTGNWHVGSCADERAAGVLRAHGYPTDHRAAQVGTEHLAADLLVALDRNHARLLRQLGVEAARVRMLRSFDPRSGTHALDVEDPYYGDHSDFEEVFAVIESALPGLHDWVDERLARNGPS
Text: as §2

AChE = AChE (Homo sapiens, UniProt P22303); assay: Acetylcholinesterase inhibition; format: biochemical
Sequence of AChE (P22303 32-614): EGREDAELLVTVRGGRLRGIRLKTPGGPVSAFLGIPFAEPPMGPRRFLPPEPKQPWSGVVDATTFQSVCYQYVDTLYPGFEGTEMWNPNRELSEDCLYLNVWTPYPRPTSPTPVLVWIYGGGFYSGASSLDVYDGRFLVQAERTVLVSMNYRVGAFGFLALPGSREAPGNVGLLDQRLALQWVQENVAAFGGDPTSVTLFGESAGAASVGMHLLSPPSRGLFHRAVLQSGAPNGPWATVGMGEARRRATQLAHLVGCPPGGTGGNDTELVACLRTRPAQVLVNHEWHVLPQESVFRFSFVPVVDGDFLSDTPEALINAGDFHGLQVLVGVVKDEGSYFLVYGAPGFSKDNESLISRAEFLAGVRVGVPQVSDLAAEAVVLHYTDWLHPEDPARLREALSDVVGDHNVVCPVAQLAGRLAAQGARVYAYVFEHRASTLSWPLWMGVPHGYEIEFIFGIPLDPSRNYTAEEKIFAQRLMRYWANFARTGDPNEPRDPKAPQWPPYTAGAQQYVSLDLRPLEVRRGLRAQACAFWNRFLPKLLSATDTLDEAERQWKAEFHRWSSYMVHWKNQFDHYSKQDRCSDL
Text: as §1

Sequence of 11beta-HSD1 (P28845 whole entry): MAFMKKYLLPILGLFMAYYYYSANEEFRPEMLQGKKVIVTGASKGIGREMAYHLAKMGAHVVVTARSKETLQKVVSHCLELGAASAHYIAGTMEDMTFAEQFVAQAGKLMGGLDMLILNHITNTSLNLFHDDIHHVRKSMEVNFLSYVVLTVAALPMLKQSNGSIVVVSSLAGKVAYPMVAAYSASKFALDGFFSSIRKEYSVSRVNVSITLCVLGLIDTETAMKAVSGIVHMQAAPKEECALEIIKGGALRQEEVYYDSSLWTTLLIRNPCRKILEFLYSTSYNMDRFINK

Structure (SMILES) | IC50 (11beta-HSD1) [µM] | IC50 (PTP1B; read-out: IC50 Target PTP1B) [µM] | IC50 (Cdc25A; read-out: IC50 Target Cdc25A) [µM] | IC50 (PP1) [µM] | IC50 (11beta-HSD2) [µM] | IC50 (VHR) [µM] | also measured
CC1=C2CCC[C@H](O)[C@@]2(C)C/C(=C\c2cc3ccccc3o2)C1=O [Compound 4, (3E,4aS,5S)-3-[(Benzofuran-2-yl)methylen]-4,4a,5,6,7,8-hexahydro-5-hydroxy-1,4a-dimethyl-naphthalen-2(3H)-one] | < 10 | 10 to 50 | 10 to 50 | 10 to 50 | – | – | –
CC1=C2CCC[C@H](O)[C@@]2(C)C/C(=C\c2cc(Cl)cs2)C1=O [Compound 12, (3E,4aS,5S)-3-[(4-Chlorthiophen-2-yl)methylen]-4,4a,5,6,7,8-hexahydro-5-hydroxy-1,4a-dimethylnaphthalen-2(3H)-one] | < 10 | 10 to 50 | – | 10 to 50 | – | – | –
CCc1cc(OC)ccc1/C=C1\C[C@@]2(C)C(=C(C)C1=O)CCC[C@@H]2O [Compound 15, (3E,4aS,5S)-3-(2-Ethyl-4-methoxybenzyliden)-4,4a,5,6,7,8-hexahydro-5-hydroxy-1,4a-dimethylnaphthalen-2(3H)-one] | < 10 | – | – | – | 10 to 50 | – | –
CC1=C2CC/C(=C\c3ccco3)C(=O)[C@@]2(C)CCC1O (stereo partly drawn) [Compound 25, (2E,8aS)-2-[(Furan-2-yl)methylen]-3,4,6,7,8,8a-hexahydro-6-hydroxy-5,8a-dimethylnaphthalen-1(2H)-one] | – | – | – | 10 to 50 | – | 10 to 50 | IC50 (MPTPA; read-out: IC50 Target MPTPA): 10 to 50 µM
CC(=O)Oc1cccc(/C=C2\C[C@@]3(C)C(=C(C)C2=O)CCC[C@@H]3O)c1 [Compound 26, 3-{(1E)-[(4S,4aS)-1,2,3,4,4a,5-Hexahydro-4-hydroxy-4a,8-dimethyl-7-oxonaphthalen-6(7H)-yliden]methyl}phenylacetat] | < 10 | 10 to 50 | – | 10 to 50 | – | 10 to 50 | –
C/C=C/C=C1\C[C@@]2(C)C(=C(C)C1=O)CCC[C@@H]2O [Compound 29, (3E,4aS,5S)-3-[(E)-But-2-enyliden]-4,4a,5,6,7,8-hexahydro-5-hydroxy-1,4a-dimethylnaphthalen-2(3H)-one] | < 10 | < 10 | 10 to 50 | – | < 10 | – | IC50 (AChE): < 10 µM
CC(=O)Oc1ccc(/C=C2\C[C@@]3(C)C(=C(C)C2=O)CCC[C@@H]3O)cc1 [Compound 31, 4-{(1E)-[(4S,4aS)-1,2,3,4,4a,5-Hexahydro-4-hydroxy-4a,8-dimethyl-7-oxonaphthalen-6(7H)-yliden]methyl}phenylacetat] | < 10 | 10 to 50 | – | – | 10 to 50 | – | IC50 (AChE; read-out: IC50 Target AChE): < 10 µM
CCC/C=C1\C[C@@]2(C)C(=C(C)C1=O)CCC[C@@H]2O [Compound 32, (3E,4aS,5S)-3-Butyliden-4,4a,5,6,7,8-hexahydro-5-hydroxy-1,4a-dimethylnaphthalen-2(3H)-one] | < 10 | 10 to 50 | 10 to 50 | 10 to 50 | < 10 | < 10 | IC50 (AChE): < 10 µM; IC50 (MPTPA): < 10 µM
CC1=C2CCCC(O)C2(C)CC(=Cc2ccc(C#CCCCC#N)cc2)C1=O [Compound 47, 6-{4-{(1E)-[(43,4aS)-1,2,3,4,4a,5-Hexahydro-4-hydroxy-4a,8-dimethyl-7-oxonaphthalen-6(7H)-yliden]-methyl}phenyl}hex-5-in-nitril] | – | 10 to 50 | 10 to 50 | < 10 | – | 10 to 50 | –
CC1=C2CCC[C@H](O)[C@@]2(C)C/C(=C\c2ccc(C#C[Si](C)(C)C)cc2)C1=O [Compound 53, (3E,4aS,5S)-3-{4-[2-(Trimethylsilyl)ethinyl]benzyliden}-4,4a,5,6,7,8-hexahydro-5-hydroxy-1,4a-dimethylnaphthalen-2(3H)-on] | – | – | – | 10 to 50 | – | – | IC50 (PTP1B): 10 to 50 µM; IC50 (Cdc25A): 10 to 50 µM
CC1=C2CC(c3ccccc3)CC(O)C2CCC1=O (stereo not shown) [Compound 167, 5-Hydroxy-1-methyl-7-phenyl-4,4a,5,6,7,8,-hexahydro-3H-naphthalen-2-one] | – | – | – | – | – | – | IC50 (AChE; read-out: IC50 Target AChE): < 10 µM
CC1(CCCc2ccccc2)C(=O)CC[C@@]2(C)C1CCC[C@@H]2O (stereo partly drawn) [Compound 397, (4aS,5S)-5-Hydroxy-1,4a-dimethyl-1-(3-phenyl-propyl)-octahydro-naphthalen-2-one] | – | – | 10 to 50 | 10 to 50 | – | 10 to 50 | –
O=C1C(=Cc2ccco2)CCC2CC=CCC12 (stereo not shown) [Compound 403, 2-Furan-2-ylmethylene-3,4,4a,5,8,8a-hexahydro-2H-naphthalen-1-one] | < 10 | – | – | – | < 10 | – | –
